The text below walks through data of patent publication US9562012B2, “PPAR-sparing compounds for the treatment of metabolic diseases” (Metabolic Solutions Development Company, LLC, priority 2013, dated 2017).

Molecules are shown by their SMILES. Counter-ions that a name gives are not always drawn. Some results are limits rather than exact numbers.

For assay [1], the target named is human PPARγ ligand binding domain (LBD) (Homo sapiens (Human), UniProt P37231). The assay can be described thus: TR-FRET PPARγ competitive binding assay (Invitrogen LanthaScreen). How it is done: The assays are conducted by first evaluation of the direct interactions of the molecules with the ligand binding domain of PPARγ. […] PPARγ binding is measured by a TR-FRET competitive binding assay using Invitrogen LanthaScreen™ TR-FRET PPARγ Competitive Binding Assay (Invitrogen #4894). This assay uses a terbium-labeled anti-GST antibody to label the GST tagged human PPARγ ligand binding domain (LBD). A fluorescent small molecule pan-PPAR ligand tracer binds to the LBD causing energy transfer from the antibody to the ligand resulting in a high TR-FRET ratio. […] The TR-FRET ratio is determined by reading the fluorescence emission at 490 and 520 nm using a Synergy2 plate reader (BioTek). The ability of compounds of the present invention to bind to PPARγ may also be measured using a commercial binding assay (Invitrogen Corporation, Carlsbad, Calif.) that measures the test compounds ability to bind with PPAR-LBD/Fluormone PPAR Green complex. These assays are performed on three occasions with each assay using duplicate wells at each concentration of tested compound. The data are mean and SEM of the values obtained from the three experiments. […] Compounds were added at the concentrations shown, which ranged from 0.1-100 micromolar.
Chain of human PPARγ ligand binding domain (LBD) (P37231 238-503): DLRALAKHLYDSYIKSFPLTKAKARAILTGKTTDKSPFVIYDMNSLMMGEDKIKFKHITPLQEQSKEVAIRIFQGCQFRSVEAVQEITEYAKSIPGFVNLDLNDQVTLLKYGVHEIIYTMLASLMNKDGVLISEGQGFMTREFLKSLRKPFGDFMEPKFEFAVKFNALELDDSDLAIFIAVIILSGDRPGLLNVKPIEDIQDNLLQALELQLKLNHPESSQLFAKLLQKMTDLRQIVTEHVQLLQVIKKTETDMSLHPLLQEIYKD
On the technique in general: TR-FRET usually uses a lanthanide donor and a delayed reading to cut background.

The test system of a further assay is diabetic KKAy mice. The assay can be described thus: Glucose, insulin and triglyceride in diabetic KKAy mice. Particulars: orally dosed 93 mg/kg for 4 days, T/C normalized to vehicle activity. In kind it is in vivo. The protocol: The insulin sensitizing and antidiabetic pharmacology are measured in the KKA^Y mice as previously reported [Hofmann, C., Lomez, K., and Colca, J. R. (1991). Glucose transport deficiency corrected by treatment with the oral anti-hyperglycemic agent Pioglitazone. Endocrinology, 129:1915-1925.]. Compounds are formulated in 1% sodium carboxy methylcellulose, and 0.01% tween 20 and dosed daily by oral gavage. […] Compounds were formulated by suspension and orally dosed to KKA^Y mice at 93 mg/kg for 4 days. The compounds were first dissolved in DMSO and then placed into aqueous suspension containing 7-10% DMSO, 1% sodium methylcarboxycellulose, and 0.01% Tween 20. On the fifth day, the mice were fasted and blood samples were obtained approximately 18 hours after the last dose. The parameters were measured by standard assay methods. Data are mean and SEM N=6-12 mice.

For `CCO[C@@H](Cc1ccc(OCc2ccccn2)cc1)C(=O)NO` [Compound 1, (2S)-2-ethoxy-N-hydroxy-3-[4-(pyridin-2-ylmethoxy)phenyl]propanamide hydrogen chloride], the IC50 in assay [1] came out at 58.9 µM.

For `CCO[C@H](Cc1ccc(OC[C@@H](O)c2cccc(OC)c2)cc1)C(=O)NO` [Compound 2, (2R)-2-ethoxy-N-hydroxy-3-{4-[(2S)-2-hydroxy-2-(3-methoxyphenyl)ethoxy]phenyl}propanamide], in assay [1], the IC50 was greater than 100 µM.

As for `CCO[C@@H](Cc1ccc(OCc2cc(OC)ccn2)cc1)C(=O)NO` [Compound 3, (2S)-2-ethoxy-N-hydroxy-3-{4-[(4-methoxypyridin-2-yl)methoxy]phenyl}propanamide hydrochloride], the concentration for half-maximal inhibition (IC50) in assay [1] was greater than 250 µM.

Take `CCO[C@@H](Cc1ccc(OCc2cc(OC)ccn2)cc1)C(=O)N(C)OC` [Compound 4, (2S)-2-ethoxy-N-methoxy-3-{4-[(4-methoxypyridin-2-yl)methoxy]phenyl}-N-methylpropanamide]: the IC50 in assay [1] came to 27.7 µM.

As to `CCO[C@@H](Cc1ccc(OCc2cc(OC)ccn2)cc1)C(=O)NOC.Cl` [Compound 5, (2S)-2-ethoxy-N-methoxy-3-{4-[(4-methoxypyridin-2-yl)methoxy]phenyl}propanamide hydrochloride], in assay [1], the IC50 is greater than 250 µM. The “Gluclose (mean T/C)” value with diabetic KKAy mice is given as 0.97.

Take `CCO[C@@H](Cc1ccc(OCc2cc(OC)ccn2)cc1)C(=O)N(C)O.Cl` [Compound 6, (2S)-2-ethoxy-N-hydroxy-3-{4-[(4-methoxypyridin-2-yl)methoxy]phenyl}-N-methylpropanamide hydrochloride]: the IC50 in assay [1] was greater than 195 µM. In addition, the “Gluclose (mean T/C)” value with diabetic KKAy mice turned out to be 0.55.

With `CCO[C@@H](Cc1ccc(OCc2cccc(I)c2)cc1)C(=O)NO` [Compound 7, (2S)-2-ethoxy-N-hydroxy-3-{4-[(3-iodobenzyl)oxy]phenyl}propanamide], in assay [1], the IC50 is 11.8 µM.

Turning to `CCO[C@H](Cc1ccc(OCC(=O)c2cccc(OC)c2)cc1)C(=O)NOC` [Compound 8, (2R)-2-ethoxy-N-methoxy-3-{4-[2-(3-methoxyphenyl)-2-oxoethoxy]phenyl}propanamide], the IC50 in assay [1] was 98.5 µM.

As for `CCO[C@@H](Cc1ccc(OCc2ccc(S(C)(=O)=O)cc2)cc1)C(=O)NOC` [Compound 9, (2S)-2-ethoxy-N-methoxy-3-(4-{[4-(methylsulfonyl)benzyl]oxy}phenyl) propanamide], the IC50 in assay [1] was greater than 250 µM.

As to `CCO[C@@H](Cc1ccc(OCCc2ccc(OS(C)(=O)=O)cc2)cc1)C(=O)NOC` [Compound 10], in assay [1], the IC50 was found to be 7.9 µM.

Take `CCO[C@H](Cc1ccc(OCC(=O)c2cccc(OC)c2)cc1)C(=O)N(C)OC` [Compound 11, (2R)-2-ethoxy-N-methoxy-3-{4-[2-(3-methoxyphenyl)-2-oxoethoxy]phenyl}-N-methylpropanamide]: in assay [1], the IC50 stood at 30.5 µM.

As to `CCO[C@@H](Cc1ccc(OC[C@@H](O)c2cccc(OC)c2)cc1)C(=O)NOC` [Compound 12, (2S)-2-ethoxy-3-{4-[(2S)-2-hydroxy-2-(3-methoxyphenyl)ethoxy]phenyl}-N-methoxypropanamide], in assay [1], the IC50 came to 164 µM. In addition, the “Gluclose (mean T/C)” value with diabetic KKAy mice is 0.49.

Turning to `CCO[C@@H](Cc1ccc(OCC(=O)c2cccc(OC)c2)cc1)C(=O)NOC` [Compound 13, (2S)-2-ethoxy-N-methoxy-3-{4-[2-(3-methoxyphenyl)-2-oxoethoxy]phenyl}Propanamide], the IC50 in assay [1] came out at 61.4 µM. For the same molecule, the “Gluclose (mean T/C)” value in the assay with diabetic KKAy mice is 0.59.

Regarding `CCO[C@@H](Cc1ccc(OCC(=O)c2cccc(OC)c2)cc1)C(=O)N(C)OC` [Compound 14, (2S)-2-ethoxy-N-methoxy-3-{4-[2-(3-methoxyphenyl)-2-oxoethoxy]phenyl}-N-methylpropanamide], in assay [1], the 50% inhibitory concentration (IC50) is greater than 250 µM. Besides, the “Gluclose (mean T/C)” value with diabetic KKAy mice is 0.76.

Turning to `CCO[C@@H](Cc1ccc(OC[C@H](O)c2cccc(OC)c2)cc1)C(=O)NOC` [Compound 15, (2S)-2-ethoxy-3-{4-[(2R)-2-hydroxy-2-(3-methoxyphenyl)ethoxy]phenyl}-N-methoxypropanamide], in assay [1], the IC50 is greater than 200 µM.

Turning to `CCO[C@@H](Cc1ccc(OC[C@H](O)c2cccc(OC)c2)cc1)C(=O)N(C)OC` [Compound 16, (2S)-2-Ethoxy-3-{4-[(2R)-2-hydroxy-2-(3-methoxyphenyl)ethoxy]phenyl}-N-methoxy-N-methylpropanamide], in assay [1], the IC50 was found to be 191 µM.

For the molecule `CCO[C@@H](Cc1ccc(OC[C@@H](O)c2cccc(OC)c2)cc1)C(=O)N(C)OC` [Compound 17], the IC50 in assay [1] was 27.7 µM.

Take `CCO[C@H](Cc1ccc(OC[C@@H](O)c2cccc(OC)c2)cc1)C(=O)NOC` [Compound 18, (2R)-2-ethoxy-3-{4-[(2S)-2-hydroxy-2-(3-methoxyphenyl)ethoxy]phenyl}-N-methoxypropanamide]: the IC50 in assay [1] was greater than 250 µM.

As to `CCO[C@H](Cc1ccc(OC[C@H](O)c2cccc(OC)c2)cc1)C(=O)NOC` [Compound 19, (2R)-2-ethoxy-3-{4-[(2R)-2-hydroxy-2-(3-methoxyphenyl)ethoxy]phenyl}-N-methoxypropanamide], the concentration for half-maximal inhibition (IC50) in assay [1] is greater than 250 µM.

As to `CCO[C@@H](Cc1ccc(OCCc2ccc(OS(C)(=O)=O)cc2)cc1)C(=O)N(C)O` [Compound 20], in assay [1], the IC50 was 10.9 µM.

On to `CCO[C@@H](Cc1ccc(OCCc2ccc(OS(C)(=O)=O)cc2)cc1)C(=O)N(C)OC` [Compound 21], for which, in assay [1], the concentration for half-maximal inhibition (IC50) came out at 3.7 µM.

By IC50 is commonly meant the concentration that inhibits the measured activity by half.
